The text below walks through data of ChEMBL document CHEMBL1201862, “PubChem BioAssay data set” (2004).

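Method: 48-hour compound exposure of cells in 96-well plates, five concentrations, linear interpolation of endpoints. GI50 marks 50% less growth.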 Activity calls are given as the source filed them. No stated cut-off is given here; in the data, active = GI50 up to about 1.1 µM and inactive = higher.

Among the test systems are MOLT-4; LOX IMVI; HCT-116; KM12; SK-MEL-5; 786-0; UO-31; OVCAR-8; HCT-15; IGROV-1; K562; SW-620; CCRF-CEM; SK-MEL-2; HOP-92; OVCAR-5.
Assay in all cases: inhibition of tumour cell growth, NCI panel, 48 h

Consider `Cc1nc(N2N=C(c3ccc(Cl)cc3)CCC2=O)sc1[N+](=O)[O-]`, for which the GI50 in the experiment with MOLT-4, with LOX IMVI, in the experiment on HCT-116, in the experiment with KM12, in the experiment on SK-MEL-5 and in the experiment with 786-0 was > 100 µM (inactive) throughout. Besides, the GI50 was > 100 µM (inactive) in the experiment with UO-31; > 100 µM (inactive) in the experiment on OVCAR-8; > 100 µM with HCT-15; > 100 µM (inactive) in the experiment with IGROV-1; > 100 µM (inactive) in the experiment with K562; > 100 µM (inactive) with SW-620. For the same molecule, the GI50 in the experiment with CCRF-CEM and in the experiment on SK-MEL-2 was > 100 µM (inactive) each time.

For `NCCCNCc1c2ccccc2c(CNCCCN)c2ccccc12`, the GI50 was 12 µM (inactive) with MOLT-4; 5.35 µM (inactive) in the experiment on HCT-116; 19.2 µM (inactive) in the experiment with KM12; 27.1 µM (inactive) in the experiment on SK-MEL-5; 5.9 µM (inactive) in the experiment with 786-0; 37.8 µM (inactive) in the experiment on UO-31. Besides, the GI50 in the experiment with HOP-92 was 11.5 µM (inactive); with OVCAR-5, 21.3 µM (inactive); in the experiment with OVCAR-8 it was 14.6 µM (inactive); in the experiment with HCT-15 it was 22 µM; in the experiment with IGROV-1 it was 44.2 µM (inactive); in the experiment on K562, 13.6 µM (inactive). The GI50 with SW-620 is 6.84 µM (inactive); in the experiment on CCRF-CEM, 16.9 µM (inactive); in the experiment with SK-MEL-2, 14.9 µM (inactive).

As for `Cc1ccc(NC(=O)c2cc3cc(/N=N/c4ccccc4C(=O)O)ccc3oc2=O)cc1`, the GI50 in the experiment on MOLT-4 was 32.2 µM (inactive); in the experiment on LOX IMVI it was 35.2 µM (inactive); in the experiment with HCT-116, 28.4 µM (inactive); with KM12 it was 44.5 µM (inactive); in the experiment with SK-MEL-5 it was 28.5 µM (inactive); with 786-0, 94.6 µM (inactive). The GI50 in the experiment on UO-31 is 30.1 µM (inactive); with OVCAR-8, 58.7 µM (inactive); with HCT-15, 34.5 µM; with IGROV-1, 41.2 µM (inactive); with K562, 39.2 µM (inactive); in the experiment with SW-620, 47.5 µM (inactive). Moreover, in the experiment with CCRF-CEM, the GI50 is 30.2 µM (inactive).

In the case of `O=C(CSc1nnc(-c2ccc(/N=C\c3ccc(Cl)cc3)cc2)o1)Nc1ccc(Cl)cc1Cl`, the GI50 in the experiment with MOLT-4 is 24.3 µM (inactive); in the experiment with HCT-116 it was 22 µM (inactive); in the experiment with KM12 it was 28.6 µM (inactive); in the experiment on SK-MEL-5 it was 33.3 µM (inactive); with 786-0, 19.5 µM (inactive); with UO-31 it was 33 µM (inactive). Also, the GI50 is 22.3 µM (inactive) in the experiment with HOP-92; 94.4 µM (inactive) in the experiment with OVCAR-5; 28.5 µM (inactive) in the experiment with OVCAR-8; 23.3 µM in the experiment with HCT-15; 32.8 µM (inactive) in the experiment with IGROV-1; 38 µM (inactive) with K562. In addition, the GI50 with SW-620 is 40.2 µM (inactive); in the experiment with CCRF-CEM, 29.3 µM (inactive); with SK-MEL-2, 25.2 µM (inactive).

As for `N#Cc1ccccc1/C=N/O`, the GI50 in the experiment on MOLT-4 was > 100 µM (inactive); in the experiment with LOX IMVI, > 100 µM (inactive); with HCT-116, > 44.2 µM (inactive); in the experiment on KM12 it was > 100 µM (inactive); in the experiment with SK-MEL-5, > 100 µM (inactive); with 786-0, > 76.7 µM (inactive). Further, the GI50 was > 100 µM (inactive) in the experiment on UO-31; > 100 µM (inactive) with HOP-92; > 100 µM (inactive) in the experiment on OVCAR-5; > 100 µM (inactive) in the experiment on OVCAR-8; > 41 µM with HCT-15; > 100 µM (inactive) in the experiment on IGROV-1. For the same molecule, the results for the GI50 with K562, in the experiment with SW-620 and with CCRF-CEM were > 44.7 µM (inactive), > 36.9 µM (inactive) and > 50.8 µM (inactive), respectively.

As to `CCCCCCCCCCCCCCCC(=O)OCC1OC(n2cc(F)c(=O)[nH]c2=O)C(N)C(O)C1O` (centres undefined), the GI50 was 22.8 µM (inactive) in the experiment with MOLT-4; 17.4 µM (inactive) in the experiment with LOX IMVI; 20 µM (inactive) in the experiment with HCT-116; 18.6 µM (inactive) with KM12; 18.1 µM (inactive) in the experiment on SK-MEL-5; 19.1 µM (inactive) in the experiment with 786-0. In addition, the GI50 is 15.6 µM (inactive) in the experiment with UO-31; 20.1 µM (inactive) with HOP-92; 27 µM (inactive) with OVCAR-5; 20.5 µM (inactive) in the experiment on OVCAR-8; > 10 µM (inactive) with IGROV-1; 16.5 µM (inactive) with K562. Besides, the results for the GI50 in the experiment on SW-620 and with CCRF-CEM were 16.7 µM (inactive) and 16 µM (inactive), respectively.

Consider `COCCCNC(=O)C1C(=O)N(CCCOC)C(=O)/C1=N\N` (centres undefined), for which the GI50 in the experiment on MOLT-4, in the experiment with HCT-116, in the experiment with KM12, with SK-MEL-5, with 786-0 and in the experiment with UO-31 was > 100 µM (inactive) each time. Moreover, the GI50 in the experiment on HOP-92 is > 100 µM (inactive); with OVCAR-5, > 100 µM (inactive); with OVCAR-8, > 100 µM (inactive); in the experiment on HCT-15 it was > 100 µM; in the experiment on K562 it was > 100 µM (inactive); in the experiment on SW-620, > 100 µM (inactive). The GI50 in the experiment on CCRF-CEM and in the experiment with SK-MEL-2 was > 100 µM (inactive) throughout.

Take `COC(=O)c1c/c(=N\NC(=O)CC(=O)Nc2ccccc2Cl)c2ccccc2o1`: the GI50 with MOLT-4, in the experiment with LOX IMVI, in the experiment with HCT-116, in the experiment with KM12, in the experiment with SK-MEL-5 and in the experiment on 786-0 was > 100 µM (inactive) each time. In addition, the GI50 in the experiment on UO-31 was 91.4 µM (inactive); with OVCAR-5 it was > 100 µM (inactive); with OVCAR-8, > 100 µM (inactive); in the experiment with HCT-15, > 100 µM; in the experiment with IGROV-1, > 100 µM (inactive); in the experiment with K562, > 100 µM (inactive). Also, the GI50 in the experiment with SW-620 and in the experiment with SK-MEL-2 was > 100 µM (inactive) each time.

For `COC(=O)C1=C(C[S+]([O-])c2ccc([N+](=O)[O-])cc2[N+](=O)[O-])ON(C)C1c1ccccc1` (centres undefined), the GI50 with MOLT-4 is 17.4 µM (inactive); with LOX IMVI, 14.9 µM (inactive); in the experiment with HCT-116, 34 µM (inactive); in the experiment with KM12, 37.2 µM (inactive); in the experiment on SK-MEL-5, 83.9 µM (inactive); in the experiment with 786-0 it was 67.1 µM (inactive). Moreover, the GI50 is 39.4 µM (inactive) with UO-31; > 95.7 µM (inactive) in the experiment on OVCAR-5; 63.7 µM (inactive) in the experiment with OVCAR-8; 37.8 µM with HCT-15; > 84.5 µM (inactive) with IGROV-1; 12.1 µM (inactive) with K562. The GI50 in the experiment on SW-620 was 15.7 µM (inactive); in the experiment with CCRF-CEM it was 9.06 µM (inactive); with SK-MEL-2 it was 37 µM (inactive).

For `[O-][Cl+3]([O-])([O-])[O-].c1ccc(C[P+]2(c3ccccc3)CCCCC2)cc1`, the GI50 in the experiment on MOLT-4 is > 100 µM (inactive); with LOX IMVI it was 85.1 µM (inactive); with HCT-116, 23.7 µM (inactive); in the experiment with KM12, > 100 µM (inactive); in the experiment with SK-MEL-5, 28.7 µM (inactive); in the experiment on 786-0, > 100 µM (inactive). In addition, the GI50 in the experiment on UO-31 is > 100 µM (inactive); in the experiment with OVCAR-5 it was > 100 µM (inactive); in the experiment on OVCAR-8 it was > 100 µM (inactive); with HCT-15, > 100 µM; in the experiment with IGROV-1 it was > 100 µM (inactive); in the experiment on K562, > 100 µM (inactive). For the same molecule, the GI50 in the experiment with SW-620 is > 100 µM (inactive); in the experiment with CCRF-CEM, > 100 µM (inactive); in the experiment on SK-MEL-2 it was 95.5 µM (inactive).
